{
  "source": "patent US20220280607A1",
  "about": "“Treatment of Heart Defects and Conditions in Pediatric Patients” (University of Pittsburgh - Of the Commonwealth System of …, priority 2019, published 2022)",
  "key": {"[1]": {"test_system": "heart muscle cells of neonatal mice", "assay": "Neonatal mice given beta blocker by retro-orbital injection (Examples 2 and 3): total cardiomyocytes, heart-body weight ratio", "type": "in vivo, mouse", "conditions": "retro-orbital injection twice a day, 1 μg/μl, 10 μl per g body weight; for heart-body-weight ratio: FIG. 17B, 18B; for total number of heart muscle cells (cardiomyocytes): P4 and P8 groups, FIG. 17A, 18A", "experimental": "(§1) Metoprolol was dissolved in PBS (1 μg/μl). The metoprolol was administered to neonatal mice using retro-orbital injection twice a day at the dose of 10 μl solution each 1 g body weight In the 4-day-old group (P4), the drug administration was performed at 9 am and 3 μm, respectively, from P1 and P3, then only injections at 9 am were performed at P4. The hearts were isolated at P4 in the afternoon. In the 8-day-old group (P8), the drug administration was performed at 9 am and 3 μm, respectively, from P1 and P7, then only injections at 9 am were performed at P8. The hearts were isolated at P8 in the afternoon.\nas §1, with “Alprenolol” for “Metoprolol”, “alprenolol” for “metoprolol”, “pm,” for “μm,”"}, "[2]": {"test_system": "cardiomyocytes of newborn mice", "assay": "Mouse pharmacological treatment of newborn mice: binucleated cardiomyocytes, cardiomyocyte endowment, cell cycle activity, heart weight", "type": "in vivo", "conditions": "newborn mice; for increase in the proportion of binucleated cardiomyocytes: forskolin 1 μg/g, 1 i.p. injection per day, FIG. 12B", "experimental": "[…] An equal volume of phosphate buffered saline (PBS) was injected in the control groups.\nIsolation of intact cardiomyocytes for quantification: We used a previously validated fixation digestion method to isolate intact cardiomyocytes from fresh or frozen myocardium for quantification (Mollova, M., et al. “Cardiomyocyte proliferation in human heart growth” Proceedings of the National Academy of Sciences January 2013, 110 (4) 1446-1451; DOI: 10.1073/pnas.1214608110). The myocardium was cut into 1 cubic millimeter (mm^3) sized tissue blocks followed by incubation with 3.7% formaldehyde at room temperature for 1.8 hours. After being washed with PBS 3 times to remove the formaldehyde, the fixed tissue blocks were digested in enzyme solution (Collagenase B, 3.6 mg/ml; Collagenase D, 4.8 mg/ml) at 37 degrees Celsius (° C.), with 10 revolutions per minute (rpm) overhead rotation. The digested cells were collected every 24 hours from the supernatant, and the undigested tissue was re-suspended with fresh enzyme solution until all of the tissue pieces were digested. All of the digested cells from the same heart were then combined and allowed to settle to the bottom of the tube. The cell pellet was collected for further study.\nCounting of cardiomyocytes after fixation and digestion: All fractions from the digestion of a heart were combined in 2 milliliters (mL) PBS and cardiomyocytes were quantified using a hemocytometer.\nIntact cardiomyocytes in suspension. To assess M-phase, intact cardiomyocytes were isolated by fixation-digestion. The solution containing the stained cells was then transferred to 8-well chambered cover glass (400 μl/well). After the cells were settled down to the bottom of the chambers, the number of mono/bi/multinucleated cardiomyocytes were counted with a fluorescence microscope, and the percentage of mono/bi/multinucleated cardiomyocytes was calculated. To quantify the proportion of H3P-positive cardiomyocytes, the concentration of stained cardiomyocytes in suspension (Ccardiomyocytes) was first measured using a hemocytometer. The cell suspension (400 μl) was then transferred to a well of a chamber slide, and the total number of H3P-positive cardiomyocytes (HH3P+) inside the well was counted with a TiE epifluorescence microscope. The proportion of the H3P-positive cardiomyocytes (PH3P+) was calculated using the following formula: […]\nHeart sections: To determine S-phase, BrdU (40 μg/g body) was administered to P7 ICR mice and the hearts were resected at P8, fixed, and cryosectioned at 15 μm thickness. From each heart, four heart sections at a distance of 300 μm were selected and imaged by tile scanning with a Nikon A1R confocal microscope. The total number of BrdU-positive cardiomyocytes at the selected heart sections was counted. The total area of the selected heart sections was measured by Fiji software. The density of BrdU-positive cardiomyocytes (cells/mm^2) in the hearts was calculated using the following equation: […]\nIntact cardiomyocytes in suspension. Cardiomyocytes were isolated from fresh or frozen (human or mouse) ventricle myocardium using the fixation-digestion method, followed by immunostaining as described above. The cells were then imaged and quantified with a Nikon A1R microscope for mono/bi/multi-nucleation."}, "[3]": {"test_system": "cardiomyocytes from infants with ToF/PS", "assay": "ToF/PS myocardium tissue (organotypic) culture: binucleated BrdU-labeled cardiomyocytes", "type": "cell-based, human", "conditions": "organotypic cultures of heart pieces from infants with ToF/PS, 10 μM, BrdU, FIG. 14E", "experimental": "ToF/PS myocardium tissue culture: Discarded myocardium samples were collected during ToF/PS surgery, cut into ˜1 mm^3 tissue blocks, and cultured in IMDM media containing 10% FBS, recombinant neuregulin 1 (rNRG1, 100 ng/ml), and BrdU (30 μM) for 6 days. Samples were treated with forskolin (10 μM), propranolol (10 μM), dobutamine (10 μM), or a combination of propranolol (10 μM) and dobutamine (10 μM).\nCultured ToF/PS myocardium. Cardiomyocytes were isolated from cultured myocardium with the fixation-digestion method. After denaturing the DNA with 2N HCl and neutralization with 2 Normal (N) sodium hydroxide (NaOH), immunofluorescence antibody labeling was performed in solution. The proportion of binucleated and BrdU-positive was quantified with a Nikon A1R microscope."}, "[4]": {"test_system": "human fetal cardiomyocytes", "assay": "Cytokinesis failure in cultured human fetal cardiomyocytes (β-adrenergic receptor signaling pathway studies)", "type": "cell-based", "conditions": "cultured human fetal cardiomyocytes, 10 μM, FIG. 14C", "experimental": "Primary cardiomyocyte culture experiments: Neonatal (mouse or rat) cardiomyocytes or human fetal cardiomyocytes were plated in 4-well chamber slides pre-coated with fibronectin (10 μg/ml) at a density of 200,000 cells/well and cultured with DMEM/high glucose (for mouse and rat cardiomyocytes) or IMDM (for fetal human cardiomyocytes) containing 10% fetal bovine serum (FBS) and recombinant neuregulin 1 (rNRG1, 100 nanograms per milliliter (ng/ml)) overnight. All treatments and BrdU (30 micromolar (μM)) were added on the next day.\nβ-adrenergic receptor signaling pathway studies: Forskolin (10 μM), propranolol (10 μM), dobutamine (10 μM), or a combination of propranolol (10 μM) and dobutamine (10 μM) were added to the culture from day 1 to day 3. The cells were collected for examining gene expression or immunofluorescence microscopy at day 3.\nCardiomyocytes cultured on glass surfaces. […] The BrdU-positive nuclei, cell-cell boundaries (Pan-Cadherin antibody), and cardiomyocyte markers (α-actinin or troponin I antibody) were labeled by immunofluorescence. The stained cells were imaged under Nikon confocal microscope. The binucleated cardiomyocytes and all BrdU-positive cardiomyocytes were quantified using Fiji software."}},
  "data": [
    {"molecule": "COCCc1ccc(OCC(O)CNC(C)C)cc1", "note": "(centres unmarked) [Metoprolol, 1-[4-(2-methoxyethyl)phenoxy]-3-(propan-2-ylamino)propan-2-ol]", "values": [
      {"measurement": "heart-body-weight ratio", "setting": "[1]", "result": "did not alter"},
      {"measurement": "total number of heart muscle cells (cardiomyocytes)", "setting": "[1]", "result": "did not alter"}
    ]},
    {"molecule": "C=CCc1ccccc1OCC(O)CNC(C)C", "note": "(centres unmarked) [alprenolol, 1-(propan-2-ylamino)-3-(2-prop-2-enylphenoxy)propan-2-ol]", "values": [
      {"measurement": "heart-body-weight ratio", "setting": "[1]", "result": "without altering"},
      {"measurement": "total number of heart muscle cells (cardiomyocytes)", "setting": "[1]", "result": "increases"},
      {"measurement": "heart weight", "setting": "[2]; 2 i.p. injections per day, FIG. 16A, 16B", "result": "did not result in a change"},
      {"measurement": "increase of cardiomyocyte endowment", "setting": "[2]; at P8, 2 i.p. injections per day, counting fixation-digested hearts, FIG. 12D, 12H", "result": 24, "unit": "%"},
      {"measurement": "decrease of the proportion/formation of binucleated cardiomyocytes", "setting": "[2]; treatment from P1 to P8, 2 i.p. injections per day (propranolol 10 μg/g; alprenolol 10 μg/g, 40 μg/g), FIG. 12C, 12G", "result": 13, "unit": "%"}
    ]},
    {"molecule": "CC(CCc1ccc(O)cc1)NCCc1ccc(O)c(O)c1", "note": "(centres unmarked) [dobutamine]", "values": [
      {"measurement": "proportion of binucleated cardiomyocytes", "setting": "[3]", "result": "maximal increase"},
      {"measurement": "binucleated cardiomyocytes as % of the Fsk-induced increase", "setting": "[4]", "result": 95.2, "unit": "%"}
    ]},
    {"molecule": "C=C[C@@]1(C)CC(=O)[C@]2(O)[C@@]3(C)[C@@H](O)CCC(C)(C)[C@@H]3[C@H](O)[C@H](OC(C)=O)[C@@]2(C)O1", "note": "[forskolin]", "values": [
      {"measurement": "increase in the proportion of binucleated cardiomyocytes", "setting": "[2]; after 4 days", "result": 37, "unit": "%"},
      {"measurement": "increase in the proportion of binucleated cardiomyocytes", "setting": "[2]; after 8 days", "result": 21, "unit": "%"}
    ]}
  ]
}
